The text below walks through data of patent US10961198B2, “Farnesoid X receptor agonists and uses thereof” (Metacrine, Inc., priority 2017, dated 2021).

The target in the experiment is hFXR (Homo sapiens (Human), UniProt Q96RI1). The experiment can be described thus: In Vitro FXR Assay (TK). The note with it: CV-1 cells transfected with hFXR, hRXR, TK-ECRE-luc and pCMX-YFP; incubated 18 hrs; luminescence; maximum efficacy <25% of the Fexarmine control classified as '+'. It counts as cell-based. How it is done:
Example B-1: In Vitro FXR Assay (TK)
CV-1 cells were seeded at a density of 2,000,000 cells in a T175 flask with DMEM+10% charcoal double-stripped FBS and incubated at 37° C. in 5% CO2 for 18 h (O/N).
After 18 h of incubation, the medium in the T175 flask was changed with fresh DMEM+10% charcoal super-stripped serum. In a polypropylene tube, 2500 μL OptiMEM (Life Technologies, Cat #31985-062) was combined with expression plasmids for hFXR, hRXR, TK-ECRE-luc and pCMX-YFP. The tube was then briefly vortexed and incubated at room temperature for 5 minutes. Transfection reagent (X-tremeGENE HP from Roche, Cat #06 366 236 001) was added to the OptiMEM/plasmid mixture vortexed and incubated at room temperature for 20 minutes. Following incubation, the transfection reagent/DNA mixture complex was added to cells in the T175 flask and the cells were incubated at 37° C. in 5% CO2 for 18 h (O/N).
Compounds were serially diluted in DMSO and added to transfected CV-1 cells. The cells were then incubated for 18 hrs. The next day cells were lysed and examined for luminescence.

Structures are written as SMILES.

One may read the EC50 as the concentration needed to bring the measured effect to its halfway point.

Chain of hFXR (Q96RI1 whole entry): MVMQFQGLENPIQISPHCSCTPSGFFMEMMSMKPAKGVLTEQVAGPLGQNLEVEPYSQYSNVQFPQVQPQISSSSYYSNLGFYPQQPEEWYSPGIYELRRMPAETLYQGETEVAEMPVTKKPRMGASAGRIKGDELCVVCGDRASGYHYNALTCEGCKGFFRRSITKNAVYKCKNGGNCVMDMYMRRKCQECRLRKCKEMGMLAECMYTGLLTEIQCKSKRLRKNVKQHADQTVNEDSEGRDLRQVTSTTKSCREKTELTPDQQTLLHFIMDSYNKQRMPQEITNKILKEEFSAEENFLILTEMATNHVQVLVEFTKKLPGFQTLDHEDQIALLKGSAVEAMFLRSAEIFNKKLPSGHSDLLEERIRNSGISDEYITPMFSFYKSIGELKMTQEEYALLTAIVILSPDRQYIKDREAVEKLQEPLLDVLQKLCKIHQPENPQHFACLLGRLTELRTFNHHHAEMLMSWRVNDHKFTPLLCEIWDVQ
Chain of hFXR (P19793 whole entry partner): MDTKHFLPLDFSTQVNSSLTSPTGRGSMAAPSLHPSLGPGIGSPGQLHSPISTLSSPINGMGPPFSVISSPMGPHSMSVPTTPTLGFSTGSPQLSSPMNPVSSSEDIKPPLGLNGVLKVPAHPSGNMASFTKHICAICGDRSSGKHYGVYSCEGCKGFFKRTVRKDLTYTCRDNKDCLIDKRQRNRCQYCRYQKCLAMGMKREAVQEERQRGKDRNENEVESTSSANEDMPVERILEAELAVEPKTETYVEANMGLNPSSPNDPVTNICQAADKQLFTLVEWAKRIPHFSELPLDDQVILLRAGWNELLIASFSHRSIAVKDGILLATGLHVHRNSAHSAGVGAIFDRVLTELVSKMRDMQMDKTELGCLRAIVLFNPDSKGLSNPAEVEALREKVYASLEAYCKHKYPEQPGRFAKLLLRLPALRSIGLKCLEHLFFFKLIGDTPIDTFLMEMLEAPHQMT

Take `CCC(C)n1cc(-c2cccc(N(C[C@H]3CC[C@H](c4ccc(OC)c(C)c4)CC3)C(=O)[C@H]3CC[C@H](O)CC3)c2)cn1` (stereo partly drawn) [Compound 3.13, trans-N-(3-(1-(sec-Butyl)-1H-pyrazol-4-yl)phenyl)-4-hydroxy-N-((trans-4-(4-methoxy-3-methylphenyl)cyclohexyl)methyl)cyclohexanecarboxamide]: the EC50 was ≤ 250 nM.

For `COc1ccc([C@H]2CC[C@H](CN(c3cccc(C#Cc4cnn(C)c4)c3)C(=O)[C@H]3CC[C@H](O)CC3)CC2)cc1C` [Compound 4, trans-4-Hydroxy-N-((trans-4-(4-methoxy-3-methylphenyl)cyclohexyl)methyl)-N-(3-((1-methyl-1H-pyrazol-4-yl)ethynyl)phenyl)cyclohexanecarboxamide], the EC50 is ≤ 250 nM.

For `COc1ccc([C@H]2CC[C@H](CN(c3cccc(C#Cc4cn[nH]c4)c3)C(=O)[C@H]3CC[C@H](O)CC3)CC2)cc1C` [Compound 4.01, trans-N-(3-((1H-Pyrazol-4-yl)ethynyl)phenyl)-4-hydroxy-N-((trans-4-(4-methoxy-3-methylphenyl)cyclohexyl)methyl)cyclohexanecarboxamide], the EC50 was ≤ 250 nM.

`COc1ccc([C@H]2CC[C@H](CN(c3cccc(C#Cc4ccn(C)n4)c3)C(=O)[C@H]3CC[C@H](O)CC3)CC2)cc1C` [Compound 4.02, trans-4-Hydroxy-N-((trans-4-(4-methoxy-3-methylphenyl)cyclohexyl)methyl)-N-(3-((1-methyl-1H-pyrazol-3-yl)ethynyl)phenyl)cyclohexanecarboxamide]: the half-maximal effective concentration (EC50) was ≤ 250 nM.

Turning to `COc1ccc([C@H]2CC[C@H](CN(c3cccc(C#Cc4cc[nH]n4)c3)C(=O)[C@H]3CC[C@H](O)CC3)CC2)cc1C` [Compound 4.03, trans-N-(3-((1H-Pyrazol-3-yl)ethynyl)phenyl)-4-hydroxy-N-((trans-4-(4-methoxy-3-methylphenyl)cyclohexyl)methyl)cyclohexanecarboxamide], the EC50 was ≤ 250 nM.

With `Cn1nc(F)c2cc([C@H]3CC[C@H](CN(c4cccc(-c5cnn(C6CC6)c5)c4)C(=O)[C@H]4CC[C@H](O)CC4)CC3)ccc21` [Compound 5, trans-N-(3-(1-Cyclopropyl-1H-pyrazol-4-yl)phenyl)-N-((trans-4-(3-fluoro-1-methyl-1H-indazol-5-yl)cyclohexyl)methyl)-4-hydroxycyclohexanecarboxamide], the EC50 was ≤ 250 nM.

With `COc1ccc([C@H]2CC[C@H](CN(c3cccc(-n4ccc(C)n4)c3)C(=O)[C@H]3CC[C@H](O)CC3)CC2)cc1C` [Compound 5.01, trans-4-Hydroxy-N-((trans-4-(4-methoxy-3-methylphenyl)cyclohexyl)methyl)-N-(3-(3-methyl-1H-pyrazol-1-yl)phenyl)cyclohexanecarboxamide], the EC50 fell in the range of 250 to 1000 nM.

For `CN(C)c1ccc([C@H]2CC[C@H](CN(c3cccc(-c4cnn(C5CC5)c4)c3)C(=O)[C@H]3CC[C@H](O)CC3)CC2)cn1` [Compound 5.02, trans-N-(3-(1-Cyclopropyl-1H-pyrazol-4-yl)phenyl)-N-((trans-4-(6-(dimethylamino)pyridin-3-yl)cyclohexyl)methyl)-4-hydroxycyclohexanecarboxamide], the EC50 was ≤ 250 nM.

Consider `COc1ccc([C@H]2CC[C@H](CN(c3cccc(-c4cnn(C5CC5)c4)c3)C(=O)[C@H]3CC[C@H](O)CC3)CC2)cc1Cl` [Compound 5.03, trans-N-((trans-4-(3-Chloro-4-methoxyphenyl)cyclohexyl)methyl)-N-(3-(1-cyclopropyl-1H-pyrazol-4-yl)phenyl)-4-hydroxycyclohexanecarboxamide], for which the EC50 is ≤ 250 nM.

Consider `COc1ccc([C@H]2CC[C@H](CN(c3cccc(-c4cnn(C5CC5)c4)c3)C(=O)[C@H]3CC[C@H](O)CC3)CC2)nc1C` [Compound 5.04, trans-N-(3-(1-cyclopropyl-1H-pyrazol-4-yl)phenyl)-4-hydroxy-N-((trans-4-(5-methoxy-6-methylpyridin-2-yl)cyclohexyl)methyl)cyclohexanecarboxamide], for which the EC50 was ≤ 250 nM.

In the case of `COc1ccc([C@H]2CC[C@H](CN(c3cccc(-c4cnn(C5CC5)c4)c3)C(=O)[C@H]3CC[C@H](O)CC3)CC2)nc1C#N` [Compound 5.05, trans-N-((trans-4-(6-Cyano-5-methoxypyridin-2-yl)cyclohexyl)methyl)-N-(3-(1-cyclopropyl-1H-pyrazol-4-yl)phenyl)-4-hydroxycyclohexanecarboxamide], the EC50 is ≤ 250 nM.

`O=C([C@H]1CC[C@H](O)CC1)N(C[C@H]1CC[C@H](c2ccc3c(c2)OCO3)CC1)c1cccc(-c2cnn(C3CC3)c2)c1` [Compound 5.06, trans-N-((trans-4-(Benzo[d][1,3]dioxol-5-yl)cyclohexyl)methyl)-N-(3-(1-cyclopropyl-1H-pyrazol-4-yl)phenyl)-4-hydroxycyclohexanecarboxamide]: the EC50 was ≤ 250 nM.

On to `COc1ccc([C@H]2CC[C@H](CN(c3cccc(-c4cnn(C(C)C)c4)c3)C(=O)[C@H]3CC[C@H](O)CC3)CC2)nc1C` [Compound 5.07, trans-4-Hydroxy-N-(3-(1-isopropyl-1H-pyrazol-4-yl)phenyl)-N-((trans-4-(5-methoxy-6-methylpyridin-2-yl)cyclohexyl)methyl)cyclohexanecarboxamide], for which the EC50 was ≤ 250 nM.

In the case of `COc1ccc([C@H]2CC[C@H](CN(c3cccc(-c4cnn(C(C)(C)C)c4)c3)C(=O)[C@H]3CC[C@H](O)CC3)CC2)cc1C` [Compound 5.08, trans-N-(3-(1-(tert-Butyl)-1H-pyrazol-4-yl)phenyl)-4-hydroxy-N-((trans-4-(4-methoxy-3-methylphenyl)cyclohexyl)methyl)cyclohexanecarboxamide], the EC50 is ≤ 250 nM.

Turning to `COc1ccc([C@H]2CC[C@H](CN(c3cc(-c4cnn(C5CC5)c4)ccn3)C(=O)[C@H]3CC[C@H](O)CC3)CC2)nc1C` [Compound 5.09, trans-N-(4-(1-Cyclopropyl-1H-pyrazol-4-yl)pyridin-2-yl)-4-hydroxy-N-((trans-4-(5-methoxy-6-methylpyridin-2-yl)cyclohexyl)methyl)cyclohexanecarboxamide], the EC50 was in the range of 250 to 1000 nM.

Take `COc1ncc([C@H]2CC[C@H](CN(c3cccc(-c4cnn(C5CC5)c4)c3)C(=O)[C@H]3CC[C@H](O)CC3)CC2)cc1Cl` [Compound 5.10, trans-N-((trans-4-(5-chloro-6-methoxypyridin-3-yl)cyclohexyl)methyl)-N-(3-(1-cyclopropyl-1H-pyrazol-4-yl)phenyl)-4-hydroxycyclohexanecarboxamide]: the EC50 was ≤ 250 nM.

With `COc1ccc([C@H]2CC[C@H](CN(c3cc(-c4cnn(C(C)C)c4)ccn3)C(=O)[C@H]3CC[C@H](O)CC3)CC2)cc1C` [Compound 5.11, trans-4-Hydroxy-N-(4-(1-isopropyl-1H-pyrazol-4-yl)pyridin-2-yl)-N-((trans-4-(4-methoxy-3-methylphenyl)cyclohexyl)methyl)cyclohexanecarboxamide], the EC50 is ≤ 250 nM.

Take `COc1ncc([C@H]2CC[C@H](CN(c3cccc(-c4cnn(C5CC5)c4)c3)C(=O)[C@H]3CC[C@H](O)CC3)CC2)cc1C` [Compound 5.12, trans-N-(3-(1-Cyclopropyl-1H-pyrazol-4-yl)phenyl)-4-hydroxy-N-((trans-4-(6-methoxy-5-methylpyridin-3-yl)cyclohexyl)methyl)cyclohexanecarboxamide]: the half-maximal effective concentration (EC50) is ≤ 250 nM.

Regarding `COc1ccc([C@H]2CC[C@H](CN(c3cc(-c4cnn(C5CC5)c4)ccn3)C(=O)[C@H]3CC[C@H](O)CC3)CC2)cc1C#N` [Compound 5.13, trans-N-((trans-4-(3-Cyano-4-methoxyphenyl)cyclohexyl)methyl)-N-(4-(1-cyclopropyl-1H-pyrazol-4-yl)pyridin-2-yl)-4-hydroxycyclohexanecarboxamide], the EC50 is ≤ 250 nM.

Turning to `COc1ccc([C@H]2CC[C@H](CN(c3cc(-c4cnn(C(C)C)c4)ccn3)C(=O)[C@H]3CC[C@H](O)CC3)CC2)cc1C#N` [Compound 5.14, trans-N-((trans-4-(3-Cyano-4-methoxyphenyl)cyclohexyl)methyl)-4-hydroxy-N-(4-(1-isopropyl-1H-pyrazol-4-yl)pyridin-2-yl)cyclohexanecarboxamide], the EC50 is ≤ 250 nM.

Take `COc1ccc([C@H]2CC[C@H](CN(c3cccc(-c4cnn(C(C)(C)C)c4)c3)C(=O)[C@H]3CC[C@H](O)CC3)CC2)nc1C` [Compound 5.15, trans-N-(3-(1-(tert-Butyl)-1H-pyrazol-4-yl)phenyl)-4-hydroxy-N-((trans-4-(5-methoxy-6-methylpyridin-2-yl)cyclohexyl)methyl)cyclohexanecarboxamide]: the half-maximal effective concentration (EC50) is ≤ 250 nM.

With `CCn1cc([C@H]2CC[C@H](CN(c3cccc(-c4cnn(C5CC5)c4)c3)C(=O)[C@H]3CC[C@H](O)CC3)CC2)cn1` [Compound 5.16, trans-N-(3-(1-Cyclopropyl-1H-pyrazol-4-yl)phenyl)-N-((trans-4-(1-ethyl-1H-pyrazol-4-yl)cyclohexyl)methyl)-4-hydroxycyclohexanecarboxamide], the EC50 fell in the range of 250 to 1000 nM.

Consider `COc1ccc([C@H]2CC[C@H](CN(c3cccc(-c4cnn(C5CCC5)c4)c3)C(=O)[C@H]3CC[C@H](O)CC3)CC2)nc1C` [Compound 5.17, trans-N-(3-(1-Cyclobutyl-1H-pyrazol-4-yl)phenyl)-4-hydroxy-N-((trans-4-(5-methoxy-6-methylpyridin-2-yl)cyclohexyl)methyl)cyclohexanecarboxamide], for which the 50% effective concentration (EC50) is ≤ 250 nM.
